Experimental data reported in patent publication US10391115B2, “Anticancer adjuvant composition containing RIP3 expression promoter as active ingredient, method for screening for anticancer adjuvant enhancing sensitivity of anticancer drug by promoting RIP3 expression, and method for monitoring sensitivity of anticancer drug” (AJOU UNIVERSITY INDUSTRY-ACADEMIC COOPERATION FOUNDATION, priority 2014, dated 2019).

Legend:
[1] = tested on: RIP3 expression in cancer cell lines (HeLa, MDA-MB231, BT549); experiment: RIP3 expression by demethylating agent 5-AD, Western blotting; type: cell-based; settings: MDA-MB231, BT549 that express no RIP3, 5-AD 2 uM, treated two times for 4 days
Protocol: (§1) Cells were lysed in M2 buffer. Equal amounts of cell extracts were analyzed by SDS-PAGE and immunoblotting, and blots were visualized by enhanced chemiluminescence (ECL, Amersham).

[2] = tested on: HeLa cell line (non-target / shRIP3); experiment: Sensitization by 5-AD plus anticancer drug in non-target and shRIP3 HeLa cell lines (immunoblotting, MTT assay); type: cell-based, human
Protocol: A MISSION short-hairpin RNA (shRNA) plasmid that targets the coding region or 3′ UTR of hRIP3 mRNA (NM_006871) or a non-target control sequence (NM-027088) were obtained from Sigma-Aldrich. A Lentivirus plasmid was transfected into 293T cells (System Biosciences, LV900A-1) using Lipofectamine 2000 (Invitrogen, 11668019). Pseudoviral particles were collected at 2 days after transfection of the Lentivirus plasmid and infected into various cancer cells in the presence of polybrene (10 μg/mL). At 2 days after infection, infected cells were selected with puromycin, and RIP3 knockdown was confirmed by immunoblotting. Cells without endogenous RIP3 were afterwards treated with 5-AD for 4 days and analyzed by immunoblotting.
Unlike a non-target cell line, in the case of a shRIP3 cell line, RIP3 expression in the cell line was inhibited by shRNA, even though the cell line was treated with 5-AD. Thus, the effect of RIP3 on sensitization of the cell line by a combined treatment with the anticancer drug and the demethylating agent could be confirmed. […] In addition, after the same number of cells seeded, the sensitization effect by the combined treatment with the anticancer drug was analyzed using a cell viability assay (MTT assay) (FIG. 6).
Because the demethylating agent (5-AD or 5-AZA) is not a specific drug for a certain protein, it may cause expression of various proteins in addition to RIP3.

[3] = tested on: HeLa cell lines; experiment: Sensitization of cancer cell death by combined treatment with demethylating agent and anticancer drug; settings: pretreated two times for 4 days to induce RIP3 expression, then anticancer drug
[4] = tested on: RIP3 expression in DLD-1 colorectal cancer cell line; experiment: RIP3 expression by demethylating agent 5-AZA, Western blotting; type: cell-based; settings: DLD-1 not expressing RIP3; various concentrations of 5-AZA, treated two times for 4 days
Protocol: as §1

[5] = tested on: T47D breast cancer cells; experiment: Viability assay (MTT) of RIP3-silenced T47D cells with anticancer drugs; type: cell-based, human; settings: 48 hours; for anticancer drug resistance (MTT assay): RIP3-knocked down T47D test group vs control group; for cell killing (MTT assay): control group T47D
Protocol: In order to examine whether RIP3 also has an effect on breast cancer cells, RIP3-expressing T47D cells were used. First, the cells were infected with RIP3 in the same manner as described in Example 6.
In order to examine whether RIP3 increases anticancer drug sensitivity in T47D breast cancer cells, an MTT assay was performed. A control group and a RIP3-knocked down test group were incubated with doxorubicin, etoposide and taxol at the concentrations shown in FIG. 11 (right) for 48 hours.

[6] = tested on: HT-29 cells; experiment: Viability assay (MTT) of RIP3-silenced HT-29 cells with anticancer drugs; type: cell-based, human; settings: doxorubicin 2.5 and 5 uM, etoposide 50 and 100 uM, 48 hours
Protocol: HT-29 cells (American Tissue Culture Collection) were cultured in a 37° C. incubator using DMEM medium supplemented with penicillin-streptomycin (10 IU/ml) and 10% FBS. The shRNAi double strand used in the present invention was commercially synthesized by Sigma-Aldrich. The shRNA used in the present invention was designed so as to target the coding region of a human RIPK3 mRNA sequence (NCBI Reference sequence NM_006871).
First, cultured HT-29 cells were dispensed in a 35-mm dish at a density of 2×10^5 cells. On the next day, the cells were infected with shRNA particles together with polybrene (10 ug/ml) according to the protocol's instruction.
In the present invention, in order to examine whether the RIP3 gene is associated with anticancer drug sensitivity, HT-29 cells infected with RIP3 shRNA were treated with varying concentrations of doxorubicin and etoposide, and then the cell viability of the cancer cells was measured. Particularly, HT-29 cells infected with RIP3 shRNA were treated with 2.5 uM and 5 uM of doxorubicin and 50 uM and 100 uM of etoposide, and then incubated for 48 hours. After the medium was replaced with a fresh medium containing 0.1 mg of MTT (3-([4,5-dimethylthiazol-2-yl]-2,5-diphenyltetrazolium bromide), the cells were further incubated for 2 hours. Colorimetric analysis was performed on a precipitate obtained by reducing a tetrazolium salt, in which viable cells is dissolved, into purple formazan crystal. Next, the medium was removed, and the produced formazan crystal was dissolved in 500 ul of DMSO, and the absorbance was measured using an ELISA reader at 570 nm. Cell viability was expressed as a percentage relative to the control taken as 100% viability.

[7] = RIP3 knocked down with shRNA HT-29
[8] = control group (non-target shRNA) HT-29

Compound | sensitization to cell death by anticancer drug after demethylating agent pretreatment [3] | anticancer drug resistance (MTT assay) [5] | cell killing (MTT assay) [5] | cell viability (MTT) [6, 7] | cell viability (MTT) [6, 8] | also measured
Nc1ncn([C@H]2C[C@H](O)[C@@H](CO)O2)c(=O)n1 [5-AD, 5-aza-2′-deoxycytidine] | sensitized to anticancer drug |  |  |  |  | RIP3 expression (Western blotting) [1]: RIP3 expression was induced; sensitization of cancer cell death by combined treatment with anticancer drug ([2]; non-target HeLa cell line, 5-AD treated two times for 4 days): showed the effect of sensitizing the cancer cell death by RIP3 expression; sensitization of cancer cell death by combined treatment with anticancer drug (cell viability assay) ([2]; shRIP3 HeLa cell line that expresses no RIP3): the sensitization effect was inhibited; RIP3 expression after 5-AD treatment ([2]; shRIP3 HeLa cell line, 5-AD treated two times for 4 days): RIP3 was not expressed
Nc1ncn([C@@H]2O[C@H](CO)[C@@H](O)[C@H]2O)c(=O)n1 [5-AZA, 5-azacytidine] | the effect of sensitizing the cancer cell line to cell death was obtained |  |  |  |  | RIP3 expression (Western blotting) [4]: RIP3 expression was induced
COc1cccc2c1C(=O)c1c(O)c3c(c(O)c1C2=O)C[C@@](O)(C(=O)CO)C[C@@H]3O[C@H]1C[C@H](N)[C@H](O)[C@H](C)O1 [doxorubicin] |  | significantly increased compared to that of the control group | killed dependently on the concentration | the cell viability increased compared to that of the control group | the cell viability decreased dependently on the concentration | 
COc1cc([C@@H]2c3cc4c(cc3[C@@H](O[C@@H]3O[C@@H]5CO[C@@H](C)O[C@H]5[C@H](O)[C@H]3O)[C@H]3COC(=O)[C@H]23)OCO4)cc(OC)c1O [etoposide] |  | significantly increased compared to that of the control group | killed dependently on the concentration | the cell viability increased compared to that of the control group | the cell viability decreased dependently on the concentration | 
CC(=O)O[C@H]1C(=O)[C@@]2(C)[C@H]([C@H](OC(=O)c3ccccc3)[C@]3(O)C[C@H](OC(=O)[C@H](O)[C@@H](NC(=O)c4ccccc4)c4ccccc4)C(C)=C1C3(C)C)[C@]1(OC(C)=O)CO[C@@H]1C[C@@H]2O [taxol] |  | significantly increased compared to that of the control group | killed dependently on the concentration |  |  | 
